Values after ≈ are worked out from the molar mass of the structure shown.
What was measured:
SHI = assay: Growth inhibition by payloads, CellTiter-Glo cell viability; assay type: cell-based; conditions: MDR −
Method: (§1) The cytotoxicity of the compounds was evaluated using the CellTiter-Glo Luminescent Cell Viability Assay (Promega Cat # G7573) as described in the manufacturer's instructions (Arduengo, M., Cell Notes, 2003, 5:15-17). This assay contains a reagent that lyses cells and generates a “glow-type” luminescent signal proportional to the amount of adenosine triphosphate (ATP) present, which is a measure of cell growth.
(§2) Cells were seeded at 1000 cells per well in 50 μL of culture media into tissue culture 96-well flat-bottom plates. The perimeter wells of the plate were not used and 200 μL of media was added to the perimeter wells to prevent evaporation during incubation. 50 μL of the compound tested at twice the final concentration were then added to the wells in triplicate. Plates were incubated at 37° C., 5% CO2 for 72 hours before adding 100 μL CellTiter-Glo reagent to each well (excluding perimeter wells). Plates were then incubated at room temperature on a shaker for 10 minutes. After incubation, 100 μL of the supernatants were transferred to a solid white 96-well plate and luminescence was measured with a spectrophotometer. Percent viability was calculated based on untreated control: % viability=(treated/untreated)*100.
(§3) GI50: Concentration of compound required for 50% cell growth inhibition.
(§4) The cytotoxic activity of compounds CLT-D201, CLT-D501, CLT-D601 was tested against various cell lines in comparison with a pyrrolobenzodiazepine dimer labeled as PBD1 (structurally identical to SGD-1882, Spirogen Ltd.), having a formula: […]

OCI-AML5 = assay: as above; assay type: cell-based; conditions: Homo sapiens, OCI-AML-5, MDR NA
Method: as §1, §2, §3, §4

HNT-34 = assay: as above; assay type: cell-based; conditions: MDR +/−
Method: as §1, §2, §3, §4

TF-1 = assay: as above; assay type: cell-based; conditions: Homo sapiens, MDR +
Method: as §1, §2, §3, §4

HEL92.1.7 = assay: as above; assay type: cell-based; conditions: Homo sapiens, HEL 92.1.7, MDR +
Method: as §1, §2, §3, §4

KG1 = assay: as above; assay type: cell-based; conditions: Homo sapiens, KG-1, MDR +
Method: as §1, §2, §3, §4

THP-1 = assay: as above; assay type: cell-based; conditions: Homo sapiens, MDR −
Method: as §1, §2, §3, §4

HL-60 = assay: as above; assay type: cell-based; conditions: Homo sapiens, MDR −
Method: as §1, §2, §3, §4

HL60 tumor cells = assay: Orthotopic HL60 AML xenograft model; assay type: in vivo, NOD/SCID mice; conditions: 1 mg/kg, day 23 after inoculation
Method: Orthotopically engrafted HL60 tumor-bearing mice were treated with unconjugated C0 (1 mg/Kg) antibody and control ADC (3 mg/Kg) as compared with mice treated with C6-CLT-D202-ADC (3 mg/Kg). The percentage of human HL60 tumor cells in the bone marrow (left panel) and in the peripheral blood (right panel) is shown, the median bar and interquartile error bars are denoted for N=4-6 mice. The table (bottom) indicates the median, minimum, maximum, and interquartile percentage of human HL60 cells in the bone marrow and peripheral blood of treated mice.
Female 6-8 week-old NOD/SCID mice were sub-lethally irradiated with 2.5 Gy, and 5 million HL60 tumors were injected intravenously at one day post-irradiation into the mice. Following 6 days of tumor cell inoculation (˜0.1-1% engraftment in the bone marrow), mice were dosed 3 times, and once per week (q7DX3) with 3 mg/Kg of C6-CLT-D202 ADC or with the same amount of control C0-ADC. Following 23 days of tumor cell inoculation, bone, spleen, and peripheral blood were collected from the treated mice and total hematopoietic cells were isolated. The percentage of human cells in these tissues was determined by flow cytometry using anti-human CD33 and CD45 antibodies. Data were analyzed by Flowjo software, and plotted with Prism software.
Greater than 90% Tumor Growth Inhibition (TGI) was observed after administration with C6-CLT-D202 ADC.

Compound: COc1cc2c(cc1OCCCOc1cc3c(cc1OC)C(=O)N1Cc4ccccc4CC1C=N3)N=CC1Cc3ccccc3CN1C2=O (stereo not drawn) [CLT-D201]
- IC50 (SHI): 0.0211 ng/mL (≈ 0.0321 nM)
- IC50 (OCI-AML5): 0.00823 ng/mL (≈ 0.0125 nM)
- IC50 (HNT-34): 0.014 ng/mL (≈ 0.0213 nM)
- IC50 (TF-1): 1.29 ng/mL
- IC50 (HEL92.1.7): 0.0404 ng/mL
- IC50 (KG1): 2.45 ng/mL
- IC50 (THP-1): 0.0291 ng/mL (≈ 0.0443 nM)
- IC50 (HL-60): 0.002 ng/mL (≈ 0.00305 nM)

Compound: COc1ccc(C2=CN3C(=O)c4cc(OC)c(OCCCOc5cc6c(cc5OC)C(=O)N5C=C(c7ccc(N)cc7)C[C@@]5(C)C=N6)cc4N=C[C@]3(C)C2)cc1 [PBD1]
- IC50 (SHI): 0.00547 ng/mL (≈ 0.00725 nM)
- IC50 (OCI-AML5): 0.00208 ng/mL (≈ 0.00276 nM)
- IC50 (HNT-34): 0.00149 ng/mL (≈ 0.00198 nM)
- IC50 (TF-1): 0.447 ng/mL
- IC50 (HEL92.1.7): 0.00387 ng/mL
- IC50 (KG1): 0.66 ng/mL
- IC50 (THP-1): 0.0126 ng/mL (≈ 0.0167 nM)
- IC50 (HL-60): 0.0028 ng/mL (≈ 0.00371 nM)

Compound: Palivizumab [C0]
- percentage of human HL60 cells, 25% Percentile (HL60 tumor cells; Blood): 36.025%
- percentage of human HL60 cells, 75% Percentile (HL60 tumor cells; Blood): 68.1%
- percentage of human HL60 cells, Median (HL60 tumor cells; Blood): 56.5%
- percentage of human HL60 cells, Minimum (HL60 tumor cells; Blood): 30.4%
- percentage of human HL60 cells, 25% Percentile (HL60 tumor cells; Bone marrow): 60.85%
- percentage of human HL60 cells, 75% Percentile (HL60 tumor cells; Bone marrow): 85.8%
- percentage of human HL60 cells, Median (HL60 tumor cells; Bone marrow): 72.95%
- percentage of human HL60 cells, Minimum (HL60 tumor cells; Bone marrow): 55.9%
